Laboratory results published in ChEMBL document CHEMBL1909046, “DrugMatrix in vitro pharmacology data”.

Assays:
[1] = target: T1, Alpha-1A adrenergic receptor (Rattus norvegicus, UniProt P43140); assay: DRUGMATRIX: Alpha-1A adrenergic receptor radioligand binding (ligand: prazosin); type: cell membranes, Wistar, Submaxillary gland, Membrane; conditions: Not Active = under 50% inhibition at 10 µM
T1 sequence (P43140 whole entry): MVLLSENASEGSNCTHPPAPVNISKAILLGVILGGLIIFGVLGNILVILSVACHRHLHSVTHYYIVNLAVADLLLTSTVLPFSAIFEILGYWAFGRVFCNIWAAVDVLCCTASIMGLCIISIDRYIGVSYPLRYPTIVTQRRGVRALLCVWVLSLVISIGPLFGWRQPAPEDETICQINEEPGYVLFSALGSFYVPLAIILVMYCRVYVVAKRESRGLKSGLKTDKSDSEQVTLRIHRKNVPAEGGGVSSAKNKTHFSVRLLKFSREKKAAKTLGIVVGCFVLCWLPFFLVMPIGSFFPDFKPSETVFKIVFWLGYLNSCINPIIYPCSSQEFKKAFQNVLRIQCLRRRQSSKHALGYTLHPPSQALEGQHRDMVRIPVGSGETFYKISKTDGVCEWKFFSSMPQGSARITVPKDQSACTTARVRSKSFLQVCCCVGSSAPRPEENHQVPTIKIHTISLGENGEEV

B2 bradykinin receptor = target: T2, B2 bradykinin receptor (Homo sapiens, UniProt P30411); type: cell membranes, Membrane; conditions: chem-1; note: in other assays of this panel Not Active means under 50% inhibition at 10 µM
T2 sequence (P30411 whole entry): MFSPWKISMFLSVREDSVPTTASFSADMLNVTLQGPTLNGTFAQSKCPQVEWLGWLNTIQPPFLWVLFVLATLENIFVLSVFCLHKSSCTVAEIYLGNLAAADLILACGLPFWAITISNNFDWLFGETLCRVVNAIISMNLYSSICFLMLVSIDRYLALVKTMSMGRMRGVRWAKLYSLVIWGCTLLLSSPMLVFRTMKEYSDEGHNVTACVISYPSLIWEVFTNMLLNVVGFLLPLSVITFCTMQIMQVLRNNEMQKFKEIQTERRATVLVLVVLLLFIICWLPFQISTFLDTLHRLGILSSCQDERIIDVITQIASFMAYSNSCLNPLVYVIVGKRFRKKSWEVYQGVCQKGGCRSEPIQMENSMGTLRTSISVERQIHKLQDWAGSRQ

[2] = DRUGMATRIX: Serotonin (5-Hydroxytryptamine) 5-HT3 radioligand binding (ligand: [3H] GR-65630); type: cell membranes, Membrane; conditions: hek293; Not Active = under 50% inhibition at 10 µM
[3] = target: Sigma non-opioid intracellular receptor 1 (Homo sapiens, UniProt Q99720); assay: DRUGMATRIX: Sigma1 radioligand binding (ligand: [3H] Haloperidol); type: cell membranes, Jurkat, Membrane; conditions: jurkat; Not Active = under 50% inhibition at 10 µM
Sigma non-opioid intracellular receptor 1, sequence (Q99720 whole entry): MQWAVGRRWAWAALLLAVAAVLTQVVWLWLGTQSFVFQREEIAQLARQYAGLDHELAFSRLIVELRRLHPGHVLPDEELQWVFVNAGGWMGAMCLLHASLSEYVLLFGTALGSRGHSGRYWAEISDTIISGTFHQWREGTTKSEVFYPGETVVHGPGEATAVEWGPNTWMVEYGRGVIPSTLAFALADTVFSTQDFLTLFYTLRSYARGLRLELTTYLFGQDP

[4] = target: Vascular endothelial growth factor receptor 1 (Homo sapiens, UniProt P17948); type: cell-based; conditions: huvec; note: in other assays of this panel Not Active means under 50% inhibition at 10 µM
Vascular endothelial growth factor receptor 1, sequence (P17948 whole entry): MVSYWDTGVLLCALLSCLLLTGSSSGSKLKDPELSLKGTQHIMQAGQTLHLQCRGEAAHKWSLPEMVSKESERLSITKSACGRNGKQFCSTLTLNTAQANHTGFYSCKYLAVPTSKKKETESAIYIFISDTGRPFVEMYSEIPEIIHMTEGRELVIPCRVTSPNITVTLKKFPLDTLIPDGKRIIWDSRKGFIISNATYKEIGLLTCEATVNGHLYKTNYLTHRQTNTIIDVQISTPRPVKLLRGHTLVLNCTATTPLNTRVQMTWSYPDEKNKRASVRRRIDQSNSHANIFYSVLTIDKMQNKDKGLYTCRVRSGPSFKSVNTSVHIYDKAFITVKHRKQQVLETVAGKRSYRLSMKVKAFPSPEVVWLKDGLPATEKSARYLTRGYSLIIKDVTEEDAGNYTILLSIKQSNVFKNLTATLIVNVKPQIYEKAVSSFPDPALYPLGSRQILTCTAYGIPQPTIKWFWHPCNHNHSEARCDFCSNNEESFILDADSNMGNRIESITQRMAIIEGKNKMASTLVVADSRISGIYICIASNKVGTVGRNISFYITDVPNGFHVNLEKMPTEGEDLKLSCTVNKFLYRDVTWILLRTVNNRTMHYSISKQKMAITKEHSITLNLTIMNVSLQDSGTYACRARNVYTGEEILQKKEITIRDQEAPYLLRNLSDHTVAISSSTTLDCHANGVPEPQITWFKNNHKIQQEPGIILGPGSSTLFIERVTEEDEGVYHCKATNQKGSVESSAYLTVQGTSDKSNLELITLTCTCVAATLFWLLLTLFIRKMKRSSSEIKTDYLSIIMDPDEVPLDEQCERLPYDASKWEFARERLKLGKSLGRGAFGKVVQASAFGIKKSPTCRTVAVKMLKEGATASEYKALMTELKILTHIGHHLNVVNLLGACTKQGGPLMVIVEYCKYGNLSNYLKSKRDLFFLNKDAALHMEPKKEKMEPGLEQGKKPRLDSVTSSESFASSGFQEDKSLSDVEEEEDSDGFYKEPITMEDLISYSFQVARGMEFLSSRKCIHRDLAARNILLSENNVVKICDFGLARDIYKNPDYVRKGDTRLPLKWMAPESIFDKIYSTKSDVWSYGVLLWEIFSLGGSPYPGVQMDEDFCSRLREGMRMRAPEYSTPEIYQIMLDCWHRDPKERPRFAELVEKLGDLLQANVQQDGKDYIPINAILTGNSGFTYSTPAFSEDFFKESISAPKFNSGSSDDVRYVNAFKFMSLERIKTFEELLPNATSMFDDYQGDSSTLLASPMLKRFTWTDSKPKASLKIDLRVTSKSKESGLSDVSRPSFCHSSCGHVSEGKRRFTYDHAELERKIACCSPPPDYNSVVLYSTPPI

[5] = target: T3, Muscarinic acetylcholine receptor M4 (Homo sapiens, UniProt P08173); type: cell membranes, CHO-K1, Membrane; conditions: cho-k1; note: in other assays of this panel Not Active means under 50% inhibition at 10 µM
T3 sequence (P08173 whole entry): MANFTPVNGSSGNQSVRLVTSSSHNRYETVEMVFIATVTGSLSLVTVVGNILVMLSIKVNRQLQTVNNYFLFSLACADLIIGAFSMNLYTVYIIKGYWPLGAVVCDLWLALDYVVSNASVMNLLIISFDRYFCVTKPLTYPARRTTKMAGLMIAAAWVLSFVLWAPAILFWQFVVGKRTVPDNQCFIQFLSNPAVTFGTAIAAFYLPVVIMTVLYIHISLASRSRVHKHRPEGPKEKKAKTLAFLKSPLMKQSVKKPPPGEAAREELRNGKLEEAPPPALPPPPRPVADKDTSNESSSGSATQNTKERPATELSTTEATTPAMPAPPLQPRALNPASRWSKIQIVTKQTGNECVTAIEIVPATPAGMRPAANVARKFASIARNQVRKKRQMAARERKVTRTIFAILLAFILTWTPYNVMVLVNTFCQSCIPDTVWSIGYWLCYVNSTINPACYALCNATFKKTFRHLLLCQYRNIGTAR

Nitric oxide synthase 1 = Nitric oxide synthase 1 (Rattus norvegicus, UniProt P29476); type: tissue-based, Cerebellum; note: in other assays of this panel Not Active means under 50% inhibition at 10 µM
Nitric oxide synthase 1, sequence (P29476 whole entry): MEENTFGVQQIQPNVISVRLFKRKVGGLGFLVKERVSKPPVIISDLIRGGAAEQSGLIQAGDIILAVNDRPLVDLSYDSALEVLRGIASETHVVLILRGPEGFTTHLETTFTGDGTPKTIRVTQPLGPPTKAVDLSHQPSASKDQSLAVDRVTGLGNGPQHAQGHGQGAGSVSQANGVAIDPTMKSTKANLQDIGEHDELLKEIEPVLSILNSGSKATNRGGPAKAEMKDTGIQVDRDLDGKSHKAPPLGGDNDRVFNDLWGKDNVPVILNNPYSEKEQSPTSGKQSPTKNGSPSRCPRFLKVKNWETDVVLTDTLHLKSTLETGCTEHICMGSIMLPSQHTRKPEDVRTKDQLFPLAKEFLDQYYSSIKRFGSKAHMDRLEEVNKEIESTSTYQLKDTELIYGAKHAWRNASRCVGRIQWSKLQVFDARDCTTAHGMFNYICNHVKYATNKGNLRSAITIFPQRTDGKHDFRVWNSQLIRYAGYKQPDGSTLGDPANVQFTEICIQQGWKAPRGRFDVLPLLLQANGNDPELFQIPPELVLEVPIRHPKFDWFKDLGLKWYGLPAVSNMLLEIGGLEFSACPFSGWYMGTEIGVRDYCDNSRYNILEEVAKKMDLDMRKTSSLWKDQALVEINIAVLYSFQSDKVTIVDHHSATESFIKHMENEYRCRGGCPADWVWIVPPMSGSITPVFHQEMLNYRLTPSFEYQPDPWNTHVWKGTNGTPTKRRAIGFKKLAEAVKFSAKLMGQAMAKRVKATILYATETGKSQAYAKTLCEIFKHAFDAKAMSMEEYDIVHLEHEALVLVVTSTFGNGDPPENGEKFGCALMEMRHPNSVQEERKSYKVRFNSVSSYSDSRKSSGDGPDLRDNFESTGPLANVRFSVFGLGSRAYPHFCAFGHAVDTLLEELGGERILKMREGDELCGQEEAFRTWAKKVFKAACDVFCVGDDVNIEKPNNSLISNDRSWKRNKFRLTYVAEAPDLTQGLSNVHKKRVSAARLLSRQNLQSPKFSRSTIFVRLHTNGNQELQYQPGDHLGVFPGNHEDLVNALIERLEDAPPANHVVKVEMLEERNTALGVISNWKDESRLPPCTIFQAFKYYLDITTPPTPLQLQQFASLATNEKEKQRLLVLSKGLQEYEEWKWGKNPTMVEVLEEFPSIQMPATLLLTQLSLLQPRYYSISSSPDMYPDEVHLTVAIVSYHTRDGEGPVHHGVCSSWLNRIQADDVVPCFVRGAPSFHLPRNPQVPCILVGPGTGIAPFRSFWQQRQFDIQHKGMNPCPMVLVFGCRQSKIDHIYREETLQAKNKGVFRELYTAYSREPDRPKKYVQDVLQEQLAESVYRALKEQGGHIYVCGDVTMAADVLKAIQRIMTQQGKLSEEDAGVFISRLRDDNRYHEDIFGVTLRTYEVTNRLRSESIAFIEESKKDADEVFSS

[6] = target: Delta-type opioid receptor (Homo sapiens, UniProt P41143); type: cell membranes, HEK293, Membrane; conditions: hek293; note: in other assays of this panel Not Active means under 50% inhibition at 10 µM
Progesterone receptor = target: T4, Progesterone receptor (Bos taurus, UniProt Q690N0); assay: DRUGMATRIX: Progesterone radioligand binding (ligand: [3H] R-5020); type: tissue-based, Uterus; conditions: Not Active = under 50% inhibition at 10 µM
T4 sequence (Q690N0 whole entry): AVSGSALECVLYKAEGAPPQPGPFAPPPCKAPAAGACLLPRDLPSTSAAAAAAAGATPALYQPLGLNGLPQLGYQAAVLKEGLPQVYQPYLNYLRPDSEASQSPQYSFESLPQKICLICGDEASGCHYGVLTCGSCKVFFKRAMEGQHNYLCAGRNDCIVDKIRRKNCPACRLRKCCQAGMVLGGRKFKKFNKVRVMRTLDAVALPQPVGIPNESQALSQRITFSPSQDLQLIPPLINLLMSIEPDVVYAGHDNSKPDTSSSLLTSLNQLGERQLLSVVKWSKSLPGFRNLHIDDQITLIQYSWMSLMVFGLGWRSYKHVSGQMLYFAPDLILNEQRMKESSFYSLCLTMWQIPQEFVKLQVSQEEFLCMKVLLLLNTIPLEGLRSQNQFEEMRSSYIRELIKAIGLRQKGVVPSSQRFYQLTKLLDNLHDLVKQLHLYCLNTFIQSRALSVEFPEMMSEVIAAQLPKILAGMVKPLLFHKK

[7] = target: Matrix metalloproteinase-9 (Homo sapiens, UniProt P14780); type: cell-based
Matrix metalloproteinase-9, sequence (P14780 whole entry): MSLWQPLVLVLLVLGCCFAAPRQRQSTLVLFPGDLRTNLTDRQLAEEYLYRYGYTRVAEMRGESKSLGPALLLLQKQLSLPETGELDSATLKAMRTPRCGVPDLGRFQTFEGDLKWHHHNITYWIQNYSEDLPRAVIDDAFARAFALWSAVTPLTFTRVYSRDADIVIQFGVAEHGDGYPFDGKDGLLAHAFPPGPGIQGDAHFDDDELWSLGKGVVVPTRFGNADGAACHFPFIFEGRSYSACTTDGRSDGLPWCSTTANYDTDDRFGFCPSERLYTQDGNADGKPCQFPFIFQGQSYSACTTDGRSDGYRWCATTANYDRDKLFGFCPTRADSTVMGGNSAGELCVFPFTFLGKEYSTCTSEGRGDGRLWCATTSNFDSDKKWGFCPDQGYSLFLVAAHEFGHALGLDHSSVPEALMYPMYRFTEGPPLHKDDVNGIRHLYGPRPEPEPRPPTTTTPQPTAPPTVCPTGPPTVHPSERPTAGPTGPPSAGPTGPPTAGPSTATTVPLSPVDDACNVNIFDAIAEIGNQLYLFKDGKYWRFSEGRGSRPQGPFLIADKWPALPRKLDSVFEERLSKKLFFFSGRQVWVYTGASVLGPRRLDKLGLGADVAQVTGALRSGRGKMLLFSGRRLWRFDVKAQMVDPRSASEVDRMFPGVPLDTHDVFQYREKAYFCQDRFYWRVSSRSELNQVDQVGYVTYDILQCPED

[8] = target: Protein kinase C alpha type (Homo sapiens, UniProt P17252); type: cell-based; conditions: sf9
[9] = target: Mitogen-activated protein kinase 14 (Homo sapiens, UniProt Q16539); parameters: species or system Escherichia coli
Mitogen-activated protein kinase 14, sequence (Q16539 whole entry): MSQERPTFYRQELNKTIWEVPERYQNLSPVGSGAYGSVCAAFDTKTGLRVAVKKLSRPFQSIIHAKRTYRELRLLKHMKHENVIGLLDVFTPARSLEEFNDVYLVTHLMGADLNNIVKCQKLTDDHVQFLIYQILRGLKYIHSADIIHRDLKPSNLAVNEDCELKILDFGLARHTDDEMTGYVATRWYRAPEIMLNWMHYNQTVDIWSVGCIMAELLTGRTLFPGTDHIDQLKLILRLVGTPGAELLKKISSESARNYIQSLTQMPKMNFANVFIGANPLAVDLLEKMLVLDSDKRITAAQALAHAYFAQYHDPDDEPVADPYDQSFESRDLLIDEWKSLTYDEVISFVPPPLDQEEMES

CCCSc1ccc2nc(NC(=O)OC)[nH]c2c1 [ALBENDAZOLE]
Not Active: IC50 [1] | IC50 (B2 bradykinin receptor) | IC50 [2] | Ki [2] | IC50 [3] | IC50 [4] | IC50 [5] | IC50 (Nitric oxide synthase 1) | IC50 [6] | IC50 (Progesterone receptor) | IC50 [7] | IC50 [8] | IC50 [9]

Cc1c(-c2ccccc2)oc2c(C(=O)OCCN3CCCCC3)cccc2c1=O [FLAVOXATE]
Not Active: IC50 [1] | IC50 (B2 bradykinin receptor) | IC50 [2] | Ki [2] | IC50 [3] | IC50 [4] | IC50 [5] | IC50 (Nitric oxide synthase 1) | IC50 [6] | IC50 (Progesterone receptor) | IC50 [7] | IC50 [8] | IC50 [9]

O=c1[nH]cc(F)c(=O)[nH]1 [FLUOROURACIL]
Not Active: IC50 [1] | IC50 (B2 bradykinin receptor) | IC50 [2] | Ki [2] | IC50 [3] | IC50 [4] | IC50 [5] | IC50 (Nitric oxide synthase 1) | IC50 [6] | IC50 (Progesterone receptor) | IC50 [7] | IC50 [8] | IC50 [9]

COc1ccc2cc(CC(=O)O)ccc2c1
Not Active: IC50 [1] | IC50 (B2 bradykinin receptor) | IC50 [2] | Ki [2] | IC50 [3] | IC50 [4] | IC50 [5] | IC50 (Nitric oxide synthase 1) | IC50 [6] | IC50 (Progesterone receptor) | IC50 [7] | IC50 [8] | IC50 [9]

CC[C@@]1(O)C(=O)OCc2c1cc1n(c2=O)Cc2cc3ccccc3nc2-1 [CAMPTOTHECIN]
Not Active: IC50 [1] | IC50 (B2 bradykinin receptor) | IC50 [2] | Ki [2] | IC50 [3] | IC50 [4] | IC50 [5] | IC50 (Nitric oxide synthase 1) | IC50 [6] | IC50 (Progesterone receptor) | IC50 [7] | IC50 [8] | IC50 [9]

NCC1(CC(=O)O)CCCCC1 [GABAPENTIN]
Not Active: IC50 [1] | IC50 (B2 bradykinin receptor) | IC50 [2] | Ki [2] | IC50 [3] | IC50 [4] | IC50 [5] | IC50 (Nitric oxide synthase 1) | IC50 [6] | IC50 (Progesterone receptor) | IC50 [7] | IC50 [8] | IC50 [9]

CN1C(C(=O)Nc2ccccn2)=C(O)c2ccccc2S1(=O)=O [PIROXICAM]
Not Active: IC50 [1] | IC50 (B2 bradykinin receptor) | IC50 [2] | Ki [2] | IC50 [3] | IC50 [4] | IC50 [5] | IC50 (Nitric oxide synthase 1) | IC50 [6] | IC50 (Progesterone receptor) | IC50 [7] | IC50 [8] | IC50 [9]

C=C1[C@@H]2CCC3[C@@](CC[C@@H]4[C@H](C(=O)O)C[C@@H](O[C@@H]5O[C@H](CO)[C@@H](OS(=O)(=O)[O-])[C@H](OS(=O)(=O)[O-])[C@H]5OC(=O)CC(C)C)C[C@@]34C)(C2)[C@@H]1O.[K+].[K+] (some centres not stated) [ATRACTYLOSIDE]
Not Active: IC50 [1] | IC50 (B2 bradykinin receptor) | IC50 [2] | Ki [2] | IC50 [3] | IC50 [4] | IC50 [5] | IC50 (Nitric oxide synthase 1) | IC50 [6] | IC50 (Progesterone receptor) | IC50 [7] | IC50 [8] | IC50 [9]

C=C1CC[C@H](O)C/C1=C/C=C1\CCC[C@]2(C)[C@@H]([C@H](C)/C=C/[C@H](C)C(C)C)CC[C@@H]12 [ERGOCALCIFEROL]
Not Active: IC50 [1] | IC50 (B2 bradykinin receptor) | IC50 [2] | Ki [2] | IC50 [3] | IC50 [4] | IC50 [5] | IC50 (Nitric oxide synthase 1) | IC50 [6] | IC50 (Progesterone receptor) | IC50 [7] | IC50 [8] | IC50 [9]
